Measured values reported in publication PMC12217109, “Development of novel benzamide class I selective lysine deacetylase inhibitors as potent anticancer agents” (Journal of Enzyme Inhibition and Medicinal Chemistry, 2025).

Key:
[1] = system: NCI/ADR-RES; experiment: NCI-60 cytotoxicity screen; assay type: cell-based; conditions: Homo sapiens, NCI-60, 48 h, ovarian
From the text: (§1) Compounds 3–7 were submitted to the US National Cancer Institute (NIH, Bethesda, Maryland) for screening against the NCI-60 panel of human cancer cell lines, as per standard protocol.

[2] = system: MCF-7; experiment: NCI-60 cytotoxicity screen; assay type: cell-based; conditions: Homo sapiens, MCF7; NCI-60, 48 h, breast
From the text: as §1

[3] = system: SF-539; experiment: NCI-60 cytotoxicity screen; assay type: cell-based; conditions: Homo sapiens, NCI-60, 48 h, CNS
From the text: as §1

[4] = system: IGROV-1; experiment: NCI-60 cytotoxicity screen; assay type: cell-based; conditions: Homo sapiens, NCI-60, 48 h, ovarian
From the text: as §1

[5] = system: BT 549; experiment: NCI-60 cytotoxicity screen; assay type: cell-based; conditions: Homo sapiens, NCI-60, 48 h, breast
From the text: as §1

[6] = system: DU-145; experiment: NCI-60 cytotoxicity screen; assay type: cell-based; conditions: Homo sapiens, NCI-60, 48 h, prostate
From the text: as §1

[7] = system: SF-268; experiment: NCI-60 cytotoxicity screen; assay type: cell-based; conditions: Homo sapiens, NCI-60, 48 h, CNS
From the text: as §1

[8] = system: H522; experiment: NCI-60 cytotoxicity screen; assay type: cell-based; conditions: Homo sapiens, NCI-60, 48 h, NSCLC
From the text: as §1

[9] = system: UO-31; experiment: NCI-60 cytotoxicity screen; assay type: cell-based; conditions: Homo sapiens, NCI-60, 48 h, renal
From the text: as §1

[10] = system: HL-60; experiment: NCI-60 cytotoxicity screen; assay type: cell-based; conditions: Homo sapiens, NCI-60, 48 h, leukaemia
From the text: as §1

[11] = system: SW620; experiment: NCI-60 cytotoxicity screen; assay type: cell-based; conditions: Homo sapiens, SW-620; NCI-60, 48 h, colon
From the text: as §1

[12] = system: PC-3; experiment: NCI-60 cytotoxicity screen; assay type: cell-based; conditions: Homo sapiens, NCI-60, 48 h, prostate
From the text: as §1

[13] = system: RXF 393; experiment: NCI-60 cytotoxicity screen; assay type: cell-based; conditions: Homo sapiens, NCI-60, 48 h, renal
From the text: as §1

[14] = system: SK-MEL-2; experiment: NCI-60 cytotoxicity screen; assay type: cell-based; conditions: Homo sapiens, NCI-60, 48 h, melanoma
From the text: as §1

[15] = system: SK-MEL-28; experiment: NCI-60 cytotoxicity screen; assay type: cell-based; conditions: Homo sapiens, NCI-60, 48 h, melanoma
From the text: as §1

[16] = system: A549; experiment: NCI-60 cytotoxicity screen; assay type: cell-based; conditions: Homo sapiens, NCI-60, 48 h, NSCLC
From the text: as §1

[17] = system: SNB-19; experiment: NCI-60 cytotoxicity screen; assay type: cell-based; conditions: Homo sapiens, NCI-60, 48 h, CNS
From the text: as §1

[18] = system: H23; experiment: NCI-60 cytotoxicity screen; assay type: cell-based; conditions: Homo sapiens, NCI-60, 48 h, NSCLC
From the text: as §1

[19] = system: UACC-62; experiment: NCI-60 cytotoxicity screen; assay type: cell-based; conditions: Homo sapiens, NCI-60, 48 h, melanoma
From the text: as §1

[20] = system: HOP-62; experiment: NCI-60 cytotoxicity screen; assay type: cell-based; conditions: Homo sapiens, NCI-60, 48 h, NSCLC
From the text: as §1

[21] = system: MDA-MB-435; experiment: NCI-60 cytotoxicity screen; assay type: cell-based; conditions: Homo sapiens, NCI-60, 48 h, melanoma
From the text: as §1

[22] = system: SF-295; experiment: NCI-60 cytotoxicity screen; assay type: cell-based; conditions: Homo sapiens, NCI-60, 48 h, CNS
From the text: as §1

[23] = system: 786-0; experiment: NCI-60 cytotoxicity screen; assay type: cell-based; conditions: Homo sapiens, NCI-60, 48 h, renal
From the text: as §1

[24] = system: COLO205; experiment: NCI-60 cytotoxicity screen; assay type: cell-based; conditions: Homo sapiens, COLO 205; NCI-60, 48 h, colon
From the text: as §1

[25] = system: SK-MEL-5; experiment: NCI-60 cytotoxicity screen; assay type: cell-based; conditions: Homo sapiens, NCI-60, 48 h, melanoma
From the text: as §1

[26] = system: HCT15; experiment: NCI-60 cytotoxicity screen; assay type: cell-based; conditions: Homo sapiens, HCT-15; NCI-60, 48 h, colon
From the text: as §1

[27] = system: ACHN; experiment: NCI-60 cytotoxicity screen; assay type: cell-based; conditions: Homo sapiens, NCI-60, 48 h, renal
From the text: as §1

[28] = system: SR; experiment: NCI-60 cytotoxicity screen; assay type: cell-based; conditions: Homo sapiens, NCI-60, 48 h, leukaemia
From the text: as §1

[29] = system: OVCAR-3; experiment: NCI-60 cytotoxicity screen; assay type: cell-based; conditions: Homo sapiens, NCI-60, 48 h, ovarian
From the text: as §1

[30] = system: RPMI-8226; experiment: NCI-60 cytotoxicity screen; assay type: cell-based; conditions: Homo sapiens, NCI-60, 48 h, leukaemia
From the text: as §1

[31] = system: H460; experiment: NCI-60 cytotoxicity screen; assay type: cell-based; conditions: Homo sapiens, NCI-60, 48 h, NSCLC
From the text: as §1

[32] = system: SN12C; experiment: NCI-60 cytotoxicity screen; assay type: cell-based; conditions: Homo sapiens, NCI-60, 48 h, renal
From the text: as §1

[33] = system: HS 578 T; experiment: NCI-60 cytotoxicity screen; assay type: cell-based; conditions: Homo sapiens, NCI-60, 48 h, breast
From the text: as §1

[34] = system: SNB-75; experiment: NCI-60 cytotoxicity screen; assay type: cell-based; conditions: Homo sapiens, NCI-60, 48 h, CNS
From the text: as §1

[35] = system: U251; experiment: NCI-60 cytotoxicity screen; assay type: cell-based; conditions: Homo sapiens, U-251; NCI-60, 48 h, CNS
From the text: as §1

[36] = system: KM12; experiment: NCI-60 cytotoxicity screen; assay type: cell-based; conditions: Homo sapiens, NCI-60, 48 h, colon
From the text: as §1

[37] = system: OVCAR-8; experiment: NCI-60 cytotoxicity screen; assay type: cell-based; conditions: Homo sapiens, NCI-60, 48 h, ovarian
From the text: as §1

[38] = system: LOX IMVI; experiment: NCI-60 cytotoxicity screen; assay type: cell-based; conditions: Homo sapiens, NCI-60, 48 h, melanoma
From the text: as §1

[39] = system: M14; experiment: NCI-60 cytotoxicity screen; assay type: cell-based; conditions: Homo sapiens, NCI-60, 48 h, melanoma
From the text: as §1

[40] = system: EKVX; experiment: NCI-60 cytotoxicity screen; assay type: cell-based; conditions: Homo sapiens, NCI-60, 48 h, NSCLC
From the text: as §1

[41] = system: CAKI-1; experiment: NCI-60 cytotoxicity screen; assay type: cell-based; conditions: Homo sapiens, NCI-60, 48 h, renal
From the text: as §1

[42] = system: OVCAR-4; experiment: NCI-60 cytotoxicity screen; assay type: cell-based; conditions: Homo sapiens, NCI-60, 48 h, ovarian
From the text: as §1

[43] = system: HeLa nuclear KDACs; experiment: Fluor-de-Lys HDAC fluorometric activity assay with HeLa nuclear extract; assay type: biochemical
Method: Total zinc-dependent KDAC (classes I, II and IV) activity was measured using the Fluor-de-Lys^TM HDAC fluorometric activity assay kit (BioMol, Exeter, UK), as per manufacturers protocol. Briefly, HeLa nuclear extract, potential inhibitor (5 nM–20 μM) and assay buffer were incubated in a 96-well fluorometric plate at 37 °C for 15 min. Acetylated substrate (100 μM) was added and the mixture incubated at 37 °C for a further 20 min. The developer was added and the mixture incubated at 37 °C for a further 15 min. Fluorescence was measured using a microplate reader (λex = 360 nm, λem = 460 nm). Percentage KDAC activity and thus KDAC inhibition was determined by quantification of fluorescence obtained in the presence versus absence of the respective inhibitor.

[44] = system: T-47D; experiment: NCI-60 cytotoxicity screen; assay type: cell-based, human; conditions: Homo sapiens, T47D; NCI-60, 48 h, breast
[45] = system: OVCAR-5; experiment: NCI-60 cytotoxicity screen; assay type: cell-based; conditions: Homo sapiens, NCI-60, 48 h, ovarian

C=C(CN1CCN(c2ccccc2C(F)(F)F)CC1)c1ccc(C(=O)Nc2ccccc2N)cc1 [Compound 3, N-(2-aminophenyl)-4–(3-(4–(2-(trifluoromethyl)phenyl)piperazin-1-yl)prop-1-en-2-yl)benzamide]
IC50 [1]: 1.87 µM | IC50 [2]: 4.48 µM | IC50 [3]: 3.27 µM | IC50 [4]: 6.03 µM | IC50 [5]: 2.67 µM | IC50 [6]: 7.52 µM | IC50 [7]: 4.55 µM | IC50 [8]: 1.91 µM | IC50 [9]: 1 µM | IC50 [10]: 0.04 µM | IC50 [11]: 3.4 µM | IC50 [12]: 1.91 µM | IC50 [13]: 1.67 µM | IC50 [14]: 10.3 µM | IC50 [15]: 10.3 µM | IC50 [16]: 4.17 µM | IC50 [17]: 24.4 µM | IC50 [18]: 5.93 µM | IC50 [19]: 9.16 µM | IC50 [20]: 4.76 µM | IC50 [21]: 2.72 µM | IC50 [22]: 5.97 µM | IC50 [23]: 2.36 µM | IC50 [24]: 11.5 µM | IC50 [25]: 3.01 µM | IC50 [26]: 4.89 µM | IC50 [27]: 7.19 µM | IC50 [28]: 2.36 µM | IC50 [29]: 5.92 µM | IC50 [30]: 0.16 µM | IC50 [31]: 5.58 µM | IC50 [32]: 6.43 µM | IC50 [33]: 12.8 µM | IC50 [34]: 2.82 µM | IC50 [35]: 4.63 µM | IC50 [36]: 2.04 µM | IC50 [37]: 3.84 µM | IC50 [38]: 5.86 µM | IC50 [39]: 4.47 µM | IC50 [40]: 6.7 µM | IC50 [41]: 7.96 µM | IC50 [42]: 6.53 µM | IC50 ([43]; HeLa nuclear extract, up to 20 µM, read-out: HDAC Inhibition IC50): > 20 µM | IC20 ([43]; concentration inhibiting HDAC activity by 20%, read-out: HDAC Inhibition IC20): 1.5 ± 0.8 µM | IC50 [44]: 7.67 µM | IC50 [45]: 11.8 µM
